This note sets out measurements from patent US10577349B2 (Sanford Burnham Prebys Medical Discovery Institute, priority 2015, dated 2020).

Experiment [1] concerns the target HCV cap-dependent translation. The experiment is described as follows: In vitro translation assay, FF-HCV-Ren construct, cap-dependent (FF luciferase). It is filed as biochemical, rabbit reticulocyte lysates. The essentials:
(§1)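 In a cell-free system, lysate-driven translation of FF-IRES-Ren RNA (0.1 μg per well, 2 h, 30° C) follows 1 h compound pre-treatment at room temperature. Dual-Glo readings separate cap-dependent (FF) from IRES-mediated (Ren) output.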

Experiment [2] deals with HCV cap-independent translation. The experiment is described as follows: In vitro translation assay, FF-HCV-Ren construct, cap-independent (Ren luciferase). It is filed as biochemical, rabbit reticulocyte lysates. The essentials: as §1
For experiment [3], the target named is EmCV Cap-independent translation. Nature of the experiment: In vitro translation assay, FF-EmCV-Ren construct, cap-independent (Ren luciferase). It is filed as biochemical, rabbit reticulocyte lysates. The essentials: as §1
Experiment [4] has as its system A375. Nature of the experiment: 48 h Cytotoxicity A375. It is filed as cell-based. As to conditions: Homo sapiens, A-375.
The target of experiment [5] is EmCV Cap-dependent translation. The experiment is described as follows: In vitro translation assay, FF-EmCV-Ren construct, cap-dependent (FF luciferase). It is filed as biochemical, rabbit reticulocyte lysates. The essentials: as §1

Consider `O=C(/C=C/c1cc(Cl)ccn1)c1c(-c2ccccc2)c2cc(Cl)ccc2[nH]c1=O` [Compound 71, 3-[(2E)-3-(4-chloro(2-pyridyl))prop-2-enoyl]-6-chloro-4-phenylhydroquinolin-2-one], for which the IC50 in experiment [1] is 10 to 20 µM; in experiment [2] it was above 20 µM; in experiment [3], above 20 µM; in experiment [4] it was 2 to 10 µM; in experiment [5], above 20 µM.
Consider `N#Cc1cncc(/C=C/C(=O)c2c(-c3ccccc3)c3cc(Cl)ccc3[nH]c2=O)c1` [Compound 72, 5-[(1E)-3-(6-chloro-2-oxo-4-phenyl(3-hydroquinolyl))-3-oxoprop-1-enyl]pyridine-3-carbonitrile], for which the 50% inhibitory concentration (IC50) in experiment [1] was 2 to 10 µM; in experiment [2] it was 2 to 10 µM; in experiment [3], 2 to 10 µM; in experiment [4], below 2 µM; in experiment [5] it was 2 to 10 µM.
On to `COCc1cncc(/C=C/C(=O)c2c(-c3ccccc3)c3cc(Cl)ccc3[nH]c2=O)c1` [Compound 73, 3-{(2E)-3-[5-(methoxymethyl)(3-pyridyl)]prop-2-enoyl}-6-chloro-4-phenylhydroquinolin-2-one], for which the IC50 is 2 to 10 µM in experiment [1]; 2 to 10 µM in experiment [2]; 2 to 10 µM in experiment [3]; below 2 µM in experiment [4]; 2 to 10 µM in experiment [5].
`Cc1cncc(/C=C/C(=O)c2c(-c3ccccc3)c3cc(Cl)ccc3[nH]c2=O)c1` [Compound 74, 3-[(2E)-3-(5-methyl(3-pyridyl))prop-2-enoyl]-6-chloro-4-phenylhydroquinolin-2-one]: the IC50 in experiment [1] was 2 to 10 µM; in experiment [2], 2 to 10 µM; in experiment [3], 2 to 10 µM; in experiment [4], below 2 µM; in experiment [5], 2 to 10 µM.
Turning to `COc1ccnc(/C=C/C(=O)c2c(-c3ccccc3)c3cc(Cl)ccc3[nH]c2=O)c1` [Compound 75, 3-[(2E)-3-(4-methoxy(2-pyridyl))prop-2-enoyl]-6-chloro-4-phenylhydroquinolin-2-one], the 50% inhibitory concentration (IC50) is 2 to 10 µM in experiment [1]; 2 to 10 µM in experiment [2]; 2 to 10 µM in experiment [3]; below 2 µM in experiment [4]; 2 to 10 µM in experiment [5].
In the case of `O=C(/C=C/c1cncc(C(F)(F)F)c1)c1c(-c2ccccc2)c2cc(Cl)ccc2[nH]c1=O` [Compound 76, 3-{(2E)-3-[5-(trifluoromethyl)(3-pyridyl)]prop-2-enoyl}-6-chloro-4-phenylhydroquinolin-2-one], the IC50 is 2 to 10 µM in experiment [1]; 2 to 10 µM in experiment [2]; 2 to 10 µM in experiment [3]; below 2 µM in experiment [4]; 2 to 10 µM in experiment [5].
Take `O=C(/C=C/c1cncc(F)c1)c1c(-c2ccc(F)cc2)c2cc(Cl)ccc2[nH]c1=O` [Compound 77, 3-[(2E)-3-(5-fluoro(3-pyridyl))prop-2-enoyl]-6-chloro-4-(4-fluorophenyl)hydroquinolin-2-one]: the IC50 in experiment [1] was 2 to 10 µM; in experiment [2] it was 2 to 10 µM; in experiment [3], 2 to 10 µM; in experiment [4], below 2 µM; in experiment [5], 2 to 10 µM.
Consider `O=C(/C=C/c1ccccn1)c1c(-c2ccc(F)cc2)c2cc(Cl)ccc2[nH]c1=O` [Compound 78, (E)-6-Chloro-4-(4-fluoro-phenyl)-3-(3-pyridin-2-yl-acryloyl)-1H-quinolin-2-one], for which the half-maximal inhibitory concentration (IC50) in experiment [1] was 2 to 10 µM; in experiment [2] it was 2 to 10 µM; in experiment [3] it was 2 to 10 µM; in experiment [4], below 2 µM; in experiment [5] it was 2 to 10 µM.
Turning to `COc1ccc(-c2c(C(=O)/C=C/c3cncc(F)c3)c(=O)[nH]c3ccc(Cl)cc23)cc1` [Compound 79, 3-[(2E)-3-(5-fluoro(3-pyridyl))prop-2-enoyl]-6-chloro-4-(4-methoxyphenyl)hydroquinolin-2-one], the IC50 in experiment [1] was 2 to 10 µM; in experiment [2], 2 to 10 µM; in experiment [3], 2 to 10 µM; in experiment [4], below 2 µM; in experiment [5] it was 2 to 10 µM.
Consider `COc1ccc(-c2c(C(=O)/C=C/c3ccccn3)c(=O)[nH]c3ccc(Cl)cc23)cc1` [Compound 80, 3-((2E)-3-(2-pyridyl)prop-2-enoyl)-6-chloro-4-(4-methoxyphenyl)hydroquinolin-2-one], for which the IC50 lay within 10 to 20 µM in experiment [1]; 2 to 10 µM in experiment [2]; 2 to 10 µM in experiment [3]; 2 to 10 µM in experiment [4]; 2 to 10 µM in experiment [5].
On to `O=C(/C=C/c1cncc(F)c1)c1c(-c2ccc(Cl)cc2)c2cc(Cl)ccc2[nH]c1=O` [Compound 81, 3-[(2E)-3-(5-fluoro(3-pyridyl))prop-2-enoyl]-6-chloro-4-(4-chlorophenyl)hydroquinolin-2-one], for which the IC50 in experiment [1], in experiment [2], in experiment [3], in experiment [4] and in experiment [5] was 2 to 10 µM each time.
`O=C(/C=C/c1ccccn1)c1c(-c2ccc(Cl)cc2)c2cc(Cl)ccc2[nH]c1=O` [Compound 82, 3-((2E)-3-(2-pyridyl)prop-2-enoyl)-6-chloro-4-(4-chlorophenyl)hydroquinolin-2-one]: the half-inhibitory concentration (IC50) in experiment [1], in experiment [2], in experiment [3], in experiment [4] and in experiment [5] was 2 to 10 µM in each case.
Regarding `O=C(/C=C/c1cncc(F)c1)c1c(-c2ccc(C(F)(F)F)cc2)c2cc(Cl)ccc2[nH]c1=O` [Compound 83, 3-[(2E)-3-(5-fluoro(3-pyridyl))prop-2-enoyl]-6-chloro-4-[4-(trifluoromethyl)phenyl]hydroquinolin-2-one], the IC50 in experiment [1], in experiment [2], in experiment [3], in experiment [4] and in experiment [5] was 2 to 10 µM throughout.
On to `O=C(/C=C/c1ccccn1)c1c(-c2ccc(C(F)(F)F)cc2)c2cc(Cl)ccc2[nH]c1=O` [Compound 84, 3-((2E)-3-(2-pyridyl)prop-2-enoyl)-6-chloro-4-[4-(trifluoromethyl)phenyl]hydroquinolin-2-one], for which the IC50 in experiment [1] was 2 to 10 µM; in experiment [2] it was 2 to 10 µM; in experiment [3], 2 to 10 µM; in experiment [4], below 2 µM; in experiment [5], 2 to 10 µM.
In the case of `Cc1ccc(-c2c(C(=O)/C=C/c3cncc(F)c3)c(=O)[nH]c3ccc(Cl)cc23)cc1` [Compound 85, 3-[(2E)-3-(5-fluoro(3-pyridyl))prop-2-enoyl]-6-chloro-4-(4-methylphenyl)hydroquinolin-2-one], the IC50 is 2 to 10 µM in experiment [1]; 2 to 10 µM in experiment [2]; 2 to 10 µM in experiment [3]; below 2 µM in experiment [4]; 2 to 10 µM in experiment [5].
Take `Cc1ccc(-c2c(C(=O)/C=C/c3ccccn3)c(=O)[nH]c3ccc(Cl)cc23)cc1` [Compound 86, 3-((2E)-3-(2-pyridyl)prop-2-enoyl)-6-chloro-4-(4-methylphenyl)hydroquinolin-2-one]: the 50% inhibitory concentration (IC50) in experiment [1], in experiment [2], in experiment [3], in experiment [4] and in experiment [5] was 2 to 10 µM throughout.
As for `O=C(/C=C/c1cncc(F)c1)c1c(-c2ccc(OC(F)(F)F)cc2)c2cc(Cl)ccc2[nH]c1=O` [Compound 87, 3-[(2E)-3-(5-fluoro(3-pyridyl))prop-2-enoyl]-6-chloro-4-[4-(trifluoromethoxy)phenyl]hydroquinolin-2-one], the IC50 in experiment [1], in experiment [2], in experiment [3], in experiment [4] and in experiment [5] was 2 to 10 µM each time.
For the compound `O=C(/C=C/c1ccccn1)c1c(-c2ccc(OC(F)(F)F)cc2)c2cc(Cl)ccc2[nH]c1=O` [Compound 88, 3-((2E)-3-(2-pyridyl)prop-2-enoyl)-6-chloro-4-[4-(trifluoromethoxy)phenyl]hydroquinolin-2-one], the IC50 in experiment [1], in experiment [2], in experiment [3], in experiment [4] and in experiment [5] was 2 to 10 µM throughout.
Regarding `N#Cc1ccc(-c2c(C(=O)/C=C/c3cncc(F)c3)c(=O)[nH]c3ccc(Cl)cc23)cc1` [Compound 89], the IC50 in experiment [1], in experiment [2], in experiment [3], in experiment [4] and in experiment [5] was 2 to 10 µM throughout.
With `N#Cc1ccc(-c2c(C(=O)/C=C/c3ccccn3)c(=O)[nH]c3ccc(Cl)cc23)cc1` [Compound 90, 4-[3-((2E)-3-(2-pyridyl)prop-2-enoyl)-6-chloro-2-oxo-4-hydroquinolyl]benzenecarbonitrile], the IC50 is 10 to 20 µM in experiment [1]; 2 to 10 µM in experiment [2]; 2 to 10 µM in experiment [3]; below 2 µM in experiment [4]; 2 to 10 µM in experiment [5].
Regarding `O=C(/C=C/c1cncc(F)c1)c1c(-c2ccc(Br)cc2)c2cc(Cl)ccc2[nH]c1=O` [Compound 91, 3-[(2E)-3-(5-fluoro(3-pyridyl))prop-2-enoyl]-4-(4-bromophenyl)-6-chlorohydroquinolin-2-one], the 50% inhibitory concentration (IC50) in experiment [1], in experiment [2], in experiment [3], in experiment [4] and in experiment [5] was 2 to 10 µM in each case.
In the case of `O=C(/C=C/c1ccccn1)c1c(-c2ccc(Br)cc2)c2cc(Cl)ccc2[nH]c1=O` [Compound 92, 3-((2E)-3-(2-pyridyl)prop-2-enoyl)-4-(4-bromophenyl)-6-chlorohydroquinolin-2-one], the IC50 in experiment [1] is 2 to 10 µM; in experiment [2] it was 2 to 10 µM; in experiment [3] it was 2 to 10 µM; in experiment [4], below 2 µM; in experiment [5], 2 to 10 µM.

What is called IC50 is the point on the concentration scale where inhibition reaches its midpoint.
